Calls of active or inactive are those of the source. The rule behind the calls is not given here.
Columns and labels:
[1] = Cytotoxicity against PCFT-deficient Chinese hamster R2(VC) cells assessed as growth inhibition after 96 hrs by CellTiter-Blue assay; format: cell-based; conditions: Cricetulus griseus
[2] = system: R2; assay: Cytotoxicity against RFC-deficient Chinese hamster R2 cells assessed as growth inhibition after 96 hrs by CellTiter-Blue assay; format: cell-based; conditions: Cricetulus griseus, R2, 96 h
[3] = system: KB; assay: Antiproliferative activity against human KB cells expressing RFC/FRalpha/PCFT after 96 hrs by CellTiter-Blue assay; format: functional, cell-based
[4] = biological target: T1, Trifunctional purine biosynthetic protein adenosine-3 (Homo sapiens, UniProt P22102); assay: Inhibition of GARFTase in human KB cells expressing RFC/FRalpha/PCFT assessed as incorporation of [U-14C]-glycine into [14C]-formyl glycinamide ribonucleotide incubated for 1 hr followed by [U-14C]-glycine addition measured after 16 hrs; format: cell-based
T1 sequence (P22102 whole entry): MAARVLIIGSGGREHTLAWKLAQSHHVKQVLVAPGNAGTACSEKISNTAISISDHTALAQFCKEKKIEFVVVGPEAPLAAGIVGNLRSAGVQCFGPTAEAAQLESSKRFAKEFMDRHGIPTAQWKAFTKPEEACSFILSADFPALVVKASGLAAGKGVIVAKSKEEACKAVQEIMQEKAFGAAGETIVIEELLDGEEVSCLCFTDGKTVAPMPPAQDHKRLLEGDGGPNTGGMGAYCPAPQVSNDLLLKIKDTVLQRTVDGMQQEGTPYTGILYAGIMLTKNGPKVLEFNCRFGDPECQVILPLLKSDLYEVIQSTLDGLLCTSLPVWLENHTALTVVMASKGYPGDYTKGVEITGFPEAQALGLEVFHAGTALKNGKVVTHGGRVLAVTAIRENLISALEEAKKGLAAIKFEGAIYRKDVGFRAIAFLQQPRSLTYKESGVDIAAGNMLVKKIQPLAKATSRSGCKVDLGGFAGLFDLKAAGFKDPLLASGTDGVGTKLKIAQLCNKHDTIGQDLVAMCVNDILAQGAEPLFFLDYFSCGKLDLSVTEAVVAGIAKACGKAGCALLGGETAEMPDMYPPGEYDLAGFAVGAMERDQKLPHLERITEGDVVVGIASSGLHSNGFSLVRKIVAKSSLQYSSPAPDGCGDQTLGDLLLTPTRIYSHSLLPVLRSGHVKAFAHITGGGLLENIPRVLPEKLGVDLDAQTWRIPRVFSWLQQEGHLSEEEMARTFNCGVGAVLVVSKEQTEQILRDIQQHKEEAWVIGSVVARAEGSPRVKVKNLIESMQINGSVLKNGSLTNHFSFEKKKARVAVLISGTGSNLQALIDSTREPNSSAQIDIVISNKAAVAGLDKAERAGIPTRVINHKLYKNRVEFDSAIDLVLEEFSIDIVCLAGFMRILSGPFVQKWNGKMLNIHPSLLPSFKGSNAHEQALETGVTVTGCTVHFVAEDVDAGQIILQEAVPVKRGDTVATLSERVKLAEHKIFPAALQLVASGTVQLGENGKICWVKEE

[5] = biological target: T2, GAR transformylase/AICAR transformylase (Homo sapiens) (UniProt P31939+P22102); conditions: KB, at 1 to 1000 nM
Description: Inhibition of GARFTase/AICARFTase in human KB cells expressing RFC/FRalpha/PCFT assessed as cell growth inhibition at 1 to 1000 nM after 96 hrs by CellTiter-Blue assay in presence of 10 uM thymidine

[6] = system: KB; assay: Antiproliferative activity against human KB cells expressing RFC/FRalpha/PCFT after 96 hrs by CellTiter-Blue assay in presence of 200 nM folic acid; format: functional, cell-based
[7] = biological target: Bifunctional purine biosynthesis protein ATIC (Homo sapiens) (UniProt P31939); assay: Inhibition of AICARFTase in human KB cells expressing RFC/FRalpha/PCFT assessed as cell growth inhibition at 1 to 1000 nM after 96 hrs by CellTiter-Blue assay in presence of 320 uM AICA; format: cell-based
[8] = biological target: T2, GAR transformylase/AICAR transformylase (Homo sapiens); conditions: KB, at 1 to 1000 nM; remark: listed apart in the source
Description: Inhibition of GARFTase/AICARFTase in human KB cells expressing RFC/FRalpha/PCFT assessed as cell growth inhibition at 1 to 1000 nM after 96 hrs by CellTiter-Blue assay in presence of 60 uM adenosine

T2 sequence (P31939 whole entry, looked up, one chain of several): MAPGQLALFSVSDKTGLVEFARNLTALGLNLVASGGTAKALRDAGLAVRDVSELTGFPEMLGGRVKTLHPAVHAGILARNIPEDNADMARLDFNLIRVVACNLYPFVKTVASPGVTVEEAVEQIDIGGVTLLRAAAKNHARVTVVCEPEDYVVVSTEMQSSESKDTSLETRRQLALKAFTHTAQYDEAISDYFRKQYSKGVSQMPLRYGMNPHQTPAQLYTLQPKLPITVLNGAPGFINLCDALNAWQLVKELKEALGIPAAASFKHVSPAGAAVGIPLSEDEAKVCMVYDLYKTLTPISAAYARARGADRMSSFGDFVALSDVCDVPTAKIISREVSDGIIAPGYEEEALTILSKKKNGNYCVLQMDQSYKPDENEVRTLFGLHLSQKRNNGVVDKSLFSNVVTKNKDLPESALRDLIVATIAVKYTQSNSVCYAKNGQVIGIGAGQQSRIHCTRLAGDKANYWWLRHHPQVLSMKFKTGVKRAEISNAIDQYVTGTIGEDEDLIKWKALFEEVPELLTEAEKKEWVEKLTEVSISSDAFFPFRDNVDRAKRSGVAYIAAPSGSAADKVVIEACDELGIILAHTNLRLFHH
Chain of Bifunctional purine biosynthesis protein ATIC (Homo sapiens) (P31939 whole entry, looked up): as the sequence (P31939 whole entry, looked up, one chain of several) above

SMILES	IC50 [1] [nM]	IC50 [2] [nM]	IC50 [3] [nM]	IC50 [4] [nM]	inhibition [5]	Activity [6]	inhibition [7]	inhibition [8]
Nc1nc2[nH]cc(Cc3ccc(C(=O)N[C@@H](CCC(=O)O)C(=O)O)s3)c2c(=O)[nH]1	> 1000	> 1000	> 1000					
Nc1nc2[nH]cc(CCc3ccc(C(=O)N[C@@H](CCC(=O)O)C(=O)O)s3)c2c(=O)[nH]1	> 1000	> 1000	875					
Nc1nc2[nH]cc(CCCCc3ccc(C(=O)N[C@@H](CCC(=O)O)C(=O)O)s3)c2c(=O)[nH]1	> 1000	> 1000	66	61	Active	inactive	Active	inactive
Nc1nc2[nH]cc(CCCCCCc3ccc(C(=O)N[C@@H](CCC(=O)O)C(=O)O)s3)c2c(=O)[nH]1	> 1000	> 1000	> 1000					
Nc1nc2[nH]c(CCCCc3ccc(C(=O)N[C@@H](CCC(=O)O)C(=O)O)s3)cc2c(=O)[nH]1	> 1000	> 1000		3.13			inactive	
Nc1nc2[nH]cc(CCCCCc3ccc(C(=O)N[C@@H](CCC(=O)O)C(=O)O)s3)c2c(=O)[nH]1	> 1000	> 1000	41.7		Active	inactive	inactive	inactive
Nc1nc2[nH]cc(CCCc3ccc(C(=O)N[C@@H](CCC(=O)O)C(=O)O)s3)c2c(=O)[nH]1	> 1000	> 1000	211		Active		Active	inactive

Reference: ChEMBL document CHEMBL3407468, “Novel 5-substituted pyrrolo[2,3-d]pyrimidines as dual inhibitors of glycinamide ribonucleotide formyltransferase and 5-aminoimidazole-4-carboxamide ribonucleotide formyltransferase and as potential antitumor agents” (J Med Chem, 2015)
